Assays:
Histone deacetylase 1 [1] = target: T1, Histone deacetylase 1 (Homo sapiens, UniProt Q13547); assay: Inhibition of HDAC1 (unknown origin) by Fluor de Lys based assay
[2] = target: T2, Proto-oncogene tyrosine-protein kinase Src (Homo sapiens, UniProt P12931); assay: Inhibition of c-Src (unknown origin) by fluorescence assay
Histone deacetylase 1 [3] = target: T1, Histone deacetylase 1; assay: Inhibition of human recombinant HDAC1 using Ac-Leu-Gly-Lys(Ac)AMCA as substrate after 30 mins by fluorescence assay
[4] = Therapeutic index, ratio of GI50 for human HMEC to GI50 for human SK-BR-3 cells; settings: HMEC cells versus SK-BR-3 cells, read-out: RatioGI50
HMEC = assay: Cytotoxicity against human HMEC after 72 hrs by WST1 assay; assay type: cell-based
SK-BR-3 = assay: Cytotoxicity against human SK-BR-3 cells after 72 hrs by WST1 assay; assay type: functional
SW-620 = assay: Cytotoxicity against human SW620 cells after 48 hrs by SRB assay; assay type: functional; settings: SW-620, 48 h
Malme-3M = assay: Cytotoxicity against human MALME-3M cells after 48 hrs by SRB assay; assay type: functional
HCT-116 = assay: Cytotoxicity against human HCT116 cells after 48 hrs by SRB assay; assay type: functional; settings: HCT-116, 48 h
Hs-578T = assay: Cytotoxicity against human Hs578T cells after 48 hrs by SRB assay; assay type: functional
MDA-MB-231 = assay: Cytotoxicity against human MDA-MB-231 cells after 48 hrs by SRB assay; assay type: functional; settings: MDA-MB-231, 48 h
DU-145 = assay: Cytotoxicity against human DU145 cells after 48 hrs by SRB assay; assay type: functional; settings: DU-145, 48 h
MCF7 = assay: Cytotoxicity against human MCF7 cells after 48 hrs by SRB assay; assay type: functional; settings: MCF7, 48 h
U-251 = assay: Cytotoxicity against human U251 cells after 48 hrs by SRB assay; assay type: functional; settings: U-251, 48 h
KM12 = assay: Cytotoxicity against human KM12 cells after 48 hrs by SRB assay; assay type: functional; settings: KM12, 48 h
[5] = target: Tyrosine-protein kinase HCK (Homo sapiens, UniProt P08631); assay: Inhibition of HCK (unknown origin)
Sequence of Tyrosine-protein kinase HCK (P08631 whole entry): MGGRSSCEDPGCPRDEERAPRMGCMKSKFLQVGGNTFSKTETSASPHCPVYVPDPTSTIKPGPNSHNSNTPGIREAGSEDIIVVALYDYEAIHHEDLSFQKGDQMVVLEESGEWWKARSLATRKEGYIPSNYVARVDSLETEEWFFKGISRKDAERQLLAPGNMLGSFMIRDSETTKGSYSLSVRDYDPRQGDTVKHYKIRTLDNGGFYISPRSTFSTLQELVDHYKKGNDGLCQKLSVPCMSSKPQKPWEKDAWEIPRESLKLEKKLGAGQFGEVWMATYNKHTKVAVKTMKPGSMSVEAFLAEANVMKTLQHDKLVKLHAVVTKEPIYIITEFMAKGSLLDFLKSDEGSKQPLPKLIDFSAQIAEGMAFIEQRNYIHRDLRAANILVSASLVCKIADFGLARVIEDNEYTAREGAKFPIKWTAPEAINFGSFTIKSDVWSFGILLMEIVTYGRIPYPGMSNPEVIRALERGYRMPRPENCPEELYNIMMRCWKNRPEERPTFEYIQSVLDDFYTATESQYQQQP

[6] = Cytotoxicity against human NCI60 cells after 48 hrs by SRB assay; assay type: functional; settings: NCI60, 48 h
Histone deacetylase 11 = Histone deacetylase 11 (Homo sapiens, UniProt Q96DB2); assay: Inhibition of HDAC11 (unknown origin) using fluorogenic peptide from p53 residues (379 to 382) (RHKK(Ac)) as substrate by fluorescence assay
Sequence of Histone deacetylase 11 (Q96DB2 whole entry, the tested form may be a part): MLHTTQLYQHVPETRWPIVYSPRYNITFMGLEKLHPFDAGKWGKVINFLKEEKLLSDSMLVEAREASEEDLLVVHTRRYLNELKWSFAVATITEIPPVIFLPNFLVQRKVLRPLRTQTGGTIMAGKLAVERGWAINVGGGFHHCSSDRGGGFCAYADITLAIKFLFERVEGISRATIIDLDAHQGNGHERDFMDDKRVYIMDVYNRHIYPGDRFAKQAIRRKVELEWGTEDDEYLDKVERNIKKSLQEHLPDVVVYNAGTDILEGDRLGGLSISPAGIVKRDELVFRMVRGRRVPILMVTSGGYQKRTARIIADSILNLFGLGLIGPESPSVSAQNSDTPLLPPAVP

[7] = target: Polyamine deacetylase HDAC10 (Homo sapiens, UniProt Q969S8); assay: Inhibition of HDAC10 (unknown origin) using fluorogenic peptide from p53 residues (379 to 382) (RHKK(Ac)) as substrate by fluorescence assay
Sequence of Polyamine deacetylase HDAC10 (Q969S8 whole entry, the tested form may be a part): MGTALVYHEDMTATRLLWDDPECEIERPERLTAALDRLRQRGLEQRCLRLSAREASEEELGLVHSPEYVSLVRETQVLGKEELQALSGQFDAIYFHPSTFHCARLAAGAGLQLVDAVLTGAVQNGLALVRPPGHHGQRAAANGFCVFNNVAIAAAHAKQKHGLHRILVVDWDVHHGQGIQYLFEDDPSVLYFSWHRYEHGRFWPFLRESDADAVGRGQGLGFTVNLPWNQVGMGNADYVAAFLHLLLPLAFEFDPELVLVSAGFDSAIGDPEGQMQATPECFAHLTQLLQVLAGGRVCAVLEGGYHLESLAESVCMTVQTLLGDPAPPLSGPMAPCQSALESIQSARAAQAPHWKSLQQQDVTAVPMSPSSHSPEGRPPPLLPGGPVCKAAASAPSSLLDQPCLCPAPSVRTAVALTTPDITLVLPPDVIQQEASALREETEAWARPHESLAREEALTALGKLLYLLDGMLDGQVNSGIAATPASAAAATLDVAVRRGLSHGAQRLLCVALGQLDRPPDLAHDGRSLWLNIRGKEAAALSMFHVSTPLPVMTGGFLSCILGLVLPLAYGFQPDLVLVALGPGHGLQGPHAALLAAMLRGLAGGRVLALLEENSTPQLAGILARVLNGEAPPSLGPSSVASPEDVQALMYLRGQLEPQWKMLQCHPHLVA

Histone deacetylase 9 = Histone deacetylase 9 (Homo sapiens, UniProt Q9UKV0); assay: Inhibition of HDAC9 (unknown origin) using Boc-Lys(trifluoroacetyl)-AMC as substrate by fluorescence assay
Histone deacetylase 8 = Histone deacetylase 8 (Homo sapiens, UniProt Q9BY41); assay: Inhibition of HDAC8 (unknown origin) using fluorogenic peptide from p53 residues (379 to 382) (RHK(Ac)K(Ac)) as substrate by fluorescence assay
Sequence of Histone deacetylase 8 (Q9BY41 whole entry, the tested form may be a part): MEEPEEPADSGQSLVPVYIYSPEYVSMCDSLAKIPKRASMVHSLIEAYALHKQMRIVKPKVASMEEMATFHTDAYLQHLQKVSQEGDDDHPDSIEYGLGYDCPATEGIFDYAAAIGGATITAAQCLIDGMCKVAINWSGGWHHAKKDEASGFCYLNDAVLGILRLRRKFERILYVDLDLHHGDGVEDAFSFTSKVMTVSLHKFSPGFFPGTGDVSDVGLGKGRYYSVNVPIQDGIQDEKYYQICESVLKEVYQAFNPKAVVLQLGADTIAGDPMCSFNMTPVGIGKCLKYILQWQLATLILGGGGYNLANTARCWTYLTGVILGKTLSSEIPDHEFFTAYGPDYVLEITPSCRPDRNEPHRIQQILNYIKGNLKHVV

[8] = target: Protein deacetylase HDAC6 (Homo sapiens, UniProt Q9UBN7); assay: Inhibition of HDAC6 (unknown origin) using fluorogenic peptide from p53 residues (379 to 382) (RHKK(Ac)) as substrate by fluorescence assay
Histone deacetylase 5 = Histone deacetylase 5 (Homo sapiens, UniProt Q9UQL6); assay: Inhibition of HDAC5 (unknown origin) using Boc-Lys(trifluoroacetyl)-AMC as substrate by fluorescence assay
Histone deacetylase 4 = Histone deacetylase 4 (Homo sapiens, UniProt P56524); assay: Inhibition of HDAC4 (unknown origin) using Boc-Lys(trifluoroacetyl)-AMC as substrate by fluorescence assay
Sequence of Histone deacetylase 4 (P56524 whole entry, the tested form may be a part): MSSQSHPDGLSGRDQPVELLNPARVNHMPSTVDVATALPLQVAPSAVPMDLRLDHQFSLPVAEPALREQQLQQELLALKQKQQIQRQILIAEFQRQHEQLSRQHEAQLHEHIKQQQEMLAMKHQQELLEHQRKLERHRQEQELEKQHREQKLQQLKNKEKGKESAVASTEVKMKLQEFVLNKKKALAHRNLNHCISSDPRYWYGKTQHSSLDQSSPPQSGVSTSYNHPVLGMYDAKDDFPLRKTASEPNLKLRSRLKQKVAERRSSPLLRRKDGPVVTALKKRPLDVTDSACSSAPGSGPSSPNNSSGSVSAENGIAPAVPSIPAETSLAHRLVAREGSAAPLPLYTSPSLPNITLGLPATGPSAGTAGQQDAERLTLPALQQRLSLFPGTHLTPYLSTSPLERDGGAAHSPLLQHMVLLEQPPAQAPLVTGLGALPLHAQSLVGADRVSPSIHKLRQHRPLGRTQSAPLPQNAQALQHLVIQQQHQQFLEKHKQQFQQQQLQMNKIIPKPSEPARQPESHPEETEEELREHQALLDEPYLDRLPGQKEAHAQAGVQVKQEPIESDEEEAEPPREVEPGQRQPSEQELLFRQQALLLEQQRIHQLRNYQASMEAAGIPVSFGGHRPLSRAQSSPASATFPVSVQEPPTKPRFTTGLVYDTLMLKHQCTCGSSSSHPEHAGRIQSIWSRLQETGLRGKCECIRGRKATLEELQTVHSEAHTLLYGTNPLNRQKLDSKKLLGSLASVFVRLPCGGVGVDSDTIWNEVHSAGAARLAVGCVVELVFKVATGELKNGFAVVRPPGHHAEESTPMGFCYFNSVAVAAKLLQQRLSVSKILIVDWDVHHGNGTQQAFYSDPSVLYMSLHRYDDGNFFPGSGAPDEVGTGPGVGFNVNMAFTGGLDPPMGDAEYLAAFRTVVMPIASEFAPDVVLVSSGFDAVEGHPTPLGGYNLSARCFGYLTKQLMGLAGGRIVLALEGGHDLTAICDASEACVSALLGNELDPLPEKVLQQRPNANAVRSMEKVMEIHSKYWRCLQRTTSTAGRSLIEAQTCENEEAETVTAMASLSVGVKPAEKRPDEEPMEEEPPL

Histone deacetylase 3 = Histone deacetylase 3 (Homo sapiens, UniProt O15379); assay: Inhibition of HDAC3 (unknown origin) using fluorogenic peptide from p53 residues (379 to 382) (RHKK(Ac)) as substrate by fluorescence assay
Sequence of Histone deacetylase 3 (O15379 whole entry, the tested form may be a part): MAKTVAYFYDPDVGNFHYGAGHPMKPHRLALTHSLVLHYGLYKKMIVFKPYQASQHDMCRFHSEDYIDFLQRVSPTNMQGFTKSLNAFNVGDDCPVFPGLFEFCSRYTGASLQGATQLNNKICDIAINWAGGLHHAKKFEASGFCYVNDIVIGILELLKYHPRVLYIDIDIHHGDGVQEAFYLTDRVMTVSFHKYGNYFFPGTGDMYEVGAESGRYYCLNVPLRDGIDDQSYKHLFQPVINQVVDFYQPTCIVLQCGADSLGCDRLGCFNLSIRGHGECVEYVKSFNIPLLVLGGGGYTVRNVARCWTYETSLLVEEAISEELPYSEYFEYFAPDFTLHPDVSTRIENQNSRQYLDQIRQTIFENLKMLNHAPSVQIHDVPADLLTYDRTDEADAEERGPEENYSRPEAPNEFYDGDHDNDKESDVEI

Histone deacetylase 2 = Histone deacetylase 2 (Homo sapiens, UniProt Q92769)
Sequence of Histone deacetylase 2 (Q92769 whole entry, the tested form may be a part): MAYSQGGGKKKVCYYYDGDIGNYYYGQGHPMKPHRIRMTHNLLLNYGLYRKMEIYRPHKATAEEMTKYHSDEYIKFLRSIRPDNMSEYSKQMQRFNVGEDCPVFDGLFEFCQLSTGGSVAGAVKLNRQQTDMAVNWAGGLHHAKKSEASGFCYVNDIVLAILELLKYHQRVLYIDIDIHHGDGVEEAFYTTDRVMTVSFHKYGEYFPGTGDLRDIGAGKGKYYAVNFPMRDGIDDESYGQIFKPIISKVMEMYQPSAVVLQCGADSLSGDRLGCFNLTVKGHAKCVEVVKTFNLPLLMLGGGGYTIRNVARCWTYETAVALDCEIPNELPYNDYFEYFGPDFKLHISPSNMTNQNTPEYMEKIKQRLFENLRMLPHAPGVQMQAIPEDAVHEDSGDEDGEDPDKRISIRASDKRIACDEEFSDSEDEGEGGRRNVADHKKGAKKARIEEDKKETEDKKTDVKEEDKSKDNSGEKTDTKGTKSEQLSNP

Histone deacetylase 1 [9] = target: T1, Histone deacetylase 1; assay: Inhibition of HDAC1 (unknown origin) using fluorogenic peptide from p53 residues (379 to 382) (RHKK(Ac)) as substrate by fluorescence assay
[10] = target: T2, Proto-oncogene tyrosine-protein kinase Src; assay: Inhibition of c-Src (unknown origin) after 10 mins by fluorimetric assay
[11] = target: Tyrosine-protein kinase ABL1 (Homo sapiens, UniProt P00519); assay: Inhibition of c-Abl (unknown origin)

T1 sequence (Q13547 whole entry): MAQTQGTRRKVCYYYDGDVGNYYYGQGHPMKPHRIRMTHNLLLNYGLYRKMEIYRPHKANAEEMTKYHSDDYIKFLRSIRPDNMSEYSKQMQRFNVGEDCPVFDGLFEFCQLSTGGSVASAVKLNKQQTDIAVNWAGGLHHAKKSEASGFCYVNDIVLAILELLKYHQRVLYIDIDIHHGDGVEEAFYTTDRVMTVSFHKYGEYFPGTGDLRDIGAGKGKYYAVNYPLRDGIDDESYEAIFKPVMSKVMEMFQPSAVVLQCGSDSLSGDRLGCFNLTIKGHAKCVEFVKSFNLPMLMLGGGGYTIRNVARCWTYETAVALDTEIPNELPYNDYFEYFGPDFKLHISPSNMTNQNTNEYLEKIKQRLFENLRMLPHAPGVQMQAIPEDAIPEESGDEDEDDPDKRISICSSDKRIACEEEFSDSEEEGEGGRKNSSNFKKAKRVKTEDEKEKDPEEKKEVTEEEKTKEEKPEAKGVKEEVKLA
T2 sequence (P12931 2-536 limits assumed): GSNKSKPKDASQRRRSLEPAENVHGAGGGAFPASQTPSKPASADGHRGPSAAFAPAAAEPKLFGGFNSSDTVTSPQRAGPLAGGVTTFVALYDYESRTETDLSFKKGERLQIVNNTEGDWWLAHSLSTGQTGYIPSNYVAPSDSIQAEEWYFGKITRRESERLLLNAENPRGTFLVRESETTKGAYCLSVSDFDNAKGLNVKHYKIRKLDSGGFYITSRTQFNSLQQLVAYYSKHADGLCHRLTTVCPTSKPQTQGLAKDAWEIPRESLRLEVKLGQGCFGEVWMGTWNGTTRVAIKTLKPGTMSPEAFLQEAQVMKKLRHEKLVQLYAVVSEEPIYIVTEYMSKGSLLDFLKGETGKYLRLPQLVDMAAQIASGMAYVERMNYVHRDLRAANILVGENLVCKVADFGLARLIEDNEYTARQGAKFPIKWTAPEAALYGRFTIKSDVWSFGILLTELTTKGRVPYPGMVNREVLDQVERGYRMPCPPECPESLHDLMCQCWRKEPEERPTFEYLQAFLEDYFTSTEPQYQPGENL

Nc1ncnc2c1c(-c1ccc(Cl)cc1)nn2-c1cccc(-c2cn(CCCCCC(=O)NO)nn2)c1 gave a Ki (Histone deacetylase 1 [1]) of 0.62 nM and a Ki [2] of 371 nM.
Nc1ncnc2c1c(-c1ccc(Cl)cc1)nn2-c1cccc(-c2cnnn2CCCCCCCC(=O)NO)c1 gave a Ki (Histone deacetylase 1 [3]) of 9.8 nM.
With Nc1ncnc2c1c(-c1ccc(Cl)cc1)nn2-c1ccccc1 the Ki [2] was 605 nM.
Molecule O=C(CCCCCn1nncc1-c1ccccc1)NO has a Ki (Histone deacetylase 1 [1]) of 45 nM.
Nc1ncnc2c1c(-c1ccc(Cl)cc1)nn2-c1cccc(-c2cnnn2Cc2cccc(-c3ccccc3)c2)c1 showed a selectivity ratio [4] of 0.9, a GI50 (HMEC) of 4300 nM and a GI50 (SK-BR-3; Homo sapiens, SK-BR-3, 72 h) of 4800 nM.
O=C(CCCCCCC(=O)Nc1ccccc1)NO [VORINOSTAT] showed a GI50 (HMEC) of 5800 nM and a GI50 (SK-BR-3) of 1200 nM.
In the case of Nc1ncnc2c1c(-c1ccc(Cl)cc1)nn2-c1cccc(-c2cnnn2CCCCCC(=O)NO)c1, the GI50 (SW-620) is reported as 250 nM, the GI50 (Malme-3M) is reported as 70 nM and the GI50 (HCT-116) is reported as 220 nM. For the same molecule, the GI50 (Hs-578T) was 170 nM, the GI50 (MDA-MB-231) was 390 nM and the GI50 (DU-145) was 390 nM. It also gave a GI50 (MCF7) of 350 nM, a GI50 (U-251) of 280 nM and a GI50 (KM12) of 470 nM. The Ki [5] was 504 nM, the GI50 [6] was 260 nM and the IC50 (Histone deacetylase 11) was 224 nM. It also gave an IC50 [7] of 51 nM, an IC50 (Histone deacetylase 9) of 28000 nM and an IC50 (Histone deacetylase 8) of 2310 nM. It also gave an IC50 [8] of 2.7 nM, an IC50 (Histone deacetylase 5) of 3890 nM and an IC50 (Histone deacetylase 4) of 3980 nM. The IC50 (Histone deacetylase 3) was 19 nM, the IC50 (Histone deacetylase 2) was 231 nM and the IC50 (Histone deacetylase 1 [9]) was 86 nM. The Ki (Histone deacetylase 1 [3]) was 0.26 nM, the Ki [10] was 138 nM and the Ki [11] was 2350 nM. The Ki (Histone deacetylase 1 [1]) was 0.26 nM, the Ki [2] was 138 nM and the GI50 (HMEC) was 4700 nM. For the same molecule, the GI50 (SK-BR-3; Homo sapiens, SK-BR-3, 72 h) was 200 nM.
With Nc1ncnc2c1c(-c1ccc(Cl)cc1)nn2-c1cccc(-c2cnnn2CCCCCCC(=O)NO)c1 the Ki (Histone deacetylase 1 [3]) was 0.82 nM and the Ki [10] was 190 nM.
With Cc1nc(Nc2ncc(C(=O)Nc3c(C)cccc3Cl)s2)cc(N2CCN(CCO)CC2)n1 [DASATINIB] the GI50 (SW-620) was 8430 nM, the GI50 (Malme-3M) was 6610 nM and the GI50 (HCT-116) was 3700 nM. For the same molecule, the GI50 (Hs-578T) was 30 nM, the GI50 (MDA-MB-231) was 20 nM and the GI50 (DU-145) was 160 nM. It also gave a GI50 (MCF7) of 8320 nM, a GI50 (U-251) of 2810 nM and a GI50 [6] of 5700 nM. It also gave a GI50 (HMEC) of 1800 nM.
Nc1ncnc2c1c(-c1ccc(Cl)cc1)nn2-c1cccc(-c2cnnn2Cc2ccc(/C=C/C(=O)NO)cc2)c1 showed a Ki (Histone deacetylase 1 [3]) of 35 nM and a Ki [10] of 4300 nM.
Molecule Nc1ncnc2c1c(-c1ccc(Cl)cc1)nn2-c1cccc(-c2cnnn2Cc2cccc(/C=C/C(=O)NO)c2)c1 has a Ki (Histone deacetylase 1 [3]) of 23 nM.

Source: ChEMBL document CHEMBL2406958, “Development of a chimeric c-Src kinase and HDAC inhibitor” (ACS Med Chem Lett, 2013)
